Data: patent US3931217A, “2,3-Dihydro-5-alkoxy-5-phenyl-5H-imidazo[2,1-a]isoindoles” (Hoffmann-La Roche Inc., priority 1974, dated 1976)

Experiments:
mice = assay: direct-acting stimulant / psychostimulant effect in animals such as mice; format: in vivo; settings: similarly tested; result in words
Method: As has been indicated hereinabove the novel end products of this invention, i.e., the compounds of the formula I and their pharmaceutically acceptable acid addition salts and the compounds of formula II-d and their pharmaceutically acceptable acid addition salts, are useful as psychostimulants. When administered, for example, orally, to animals such as mice they produce a direct-acting stimulant effect of long duration in single doses in amounts ranging from 0.03 mg/kg to 50 mg/kg. […] Exp. Path. and Pharm., Vol. 140, page 237). The compounds of this invention have psychostimulant effects qualitatively similar in many respects to those of imipramine and amphetamine which are well known for their therapeutic uses and properties.

[1] = acute toxicity (LD50) in mice; settings: mouse, in vivo
dogs = assay: blood pressure in dogs; format: in vivo; settings: 4 mg/kg i.v.
Method: (§1) In addition to their use as psychostimulants, the compounds of formulas I and II-d are also useful as analgesic agents. […] For example, 2-(2-benzoylphenyl)-2-imidazoline in dogs at 4 mg/kg i.v. produced an increase in blood pressure of 10 mm. Hg after 2 minutes followed by gradual increase to 25 mm. Hg.

animals = assay: analgesic properties in standard pharmacological tests in animals; format: in vivo; settings: result in words
Method: as §1

LD50 of Example 21 = settings: in vivo, iv; species not given

COc1ccc(C(=O)c2ccccc2C2=NCCN2)cc1 [Example 16, 2-[2'-(4-anisoyl)phenyl]-2-imidazoline]
test result compared with 2-(2-benzoylphenyl)-2-imidazoline (mice): qualitatively similar to 2-(2-benzoylphenyl)-2-imidazoline

O=C(c1ccccc1)c1ccccc1C1=NCCN1 [Example 10, 2-(2-benzoylphenyl)-2-imidazoline]
LD50 ([1]; ip): 77 mg/kg | LD50 ([1]; iv): 37 mg/kg | LD50 ([1]; po): 200 mg/kg | LD50 ([1]; sc): 130 mg/kg | increase in blood pressure (dogs; after 2 minutes): 10 mm. Hg | gradual increase in blood pressure (dogs; following the 2-minute value): 25 mm. Hg | analgesic properties compared with phenylbutazone (animals): can be likened to the analgesic properties of phenylbutazone

O=C(c1ccc(Cl)cc1)c1ccccc1C1=NCCN1 [Example 15, 2-[2'-(4-chlorobenzoyl)phenyl]-2-imidazoline]
test result compared with 2-(2-benzoylphenyl)-2-imidazoline (mice): qualitatively similar to 2-(2-benzoylphenyl)-2-imidazoline

COC1(c2ccccc2)c2ccccc2C2=NCCN21 (centres unmarked) [2,3-dihydro-5-methoxy-5-phenyl-5H-imidazo[2,1-a]isoindole]
test result compared with 2-(2-benzoylphenyl)-2-imidazoline (mice): qualitatively similar to 2-(2-benzoylphenyl)-2-imidazoline

OC1(c2ccccc2)c2ccccc2C2=NCCCCN21 (centres unmarked) [Example 21, 2,3,4,5-tetrahydro-7-hydroxy-7-phenyl-7H-diazepino[2,1-a]isoindole]
LD50 (LD50 of Example 21): 40 mg/kg
